These are literature values, as cited in patent US7129073B2, “Regulation of neuronal function through metabotropic glutamate receptor signaling pathways” (The Rockefeller University, priority 2001, dated 2006).

pIC50: −log10 of the molar value.

For orientation: pIC50 means the negative decadic logarithm of the IC50, by convention in mol/L.

The target of this data set is T1, T-cell protein-tyrosine phosphatase (TC PTP) (Homo sapiens, UniProt P17706).
T1 sequence (P17706 1-415): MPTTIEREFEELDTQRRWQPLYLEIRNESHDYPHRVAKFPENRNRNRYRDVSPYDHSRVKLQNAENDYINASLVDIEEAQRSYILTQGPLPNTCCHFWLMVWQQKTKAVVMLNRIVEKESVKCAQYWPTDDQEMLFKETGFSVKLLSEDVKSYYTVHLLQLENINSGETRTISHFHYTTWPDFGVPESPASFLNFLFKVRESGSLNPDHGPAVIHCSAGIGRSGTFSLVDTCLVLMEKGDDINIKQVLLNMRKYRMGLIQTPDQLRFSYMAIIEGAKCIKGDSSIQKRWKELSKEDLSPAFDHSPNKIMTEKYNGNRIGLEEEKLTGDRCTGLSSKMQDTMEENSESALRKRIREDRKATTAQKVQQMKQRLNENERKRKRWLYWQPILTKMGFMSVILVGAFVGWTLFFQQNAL
The following applies: cited from earlier work.

In the case of `[Na+].[Na+].[Na+].[O]=[V]([O-])([O-])[O-]` [Na3VO4], the “effect on TC PTP-dependent change in polarization” value (50 μM Na3VO4) is “inhibited”. In addition, the pIC50 (FP-based direct binding assay) was 8.40.
